Three compounds from publication PMC11471619, “A palmitoyl transferase chemical–genetic system to map ZDHHC-specific S-acylation” (Nature Biotechnology, 2024) can be followed below.

Holding throughout (test): probe loading in HEK293T, FLAG IP, TAMRA click, in-gel fluorescence
What all share (format): cell-based
Details in all cases: 15 µM, fed as free acid and activated to the CoA ester in cells; covalent thioester

Test [1] deals with T1, ZDHHC15 (Homo sapiens, UniProt Q96MV8, Y184G).
T1 construct: N-terminal 3xFLAG tag; expressed in HEK293T, anti-FLAG immunoprecipitated
T1 sequence (Q96MV8 1-337 Y184G): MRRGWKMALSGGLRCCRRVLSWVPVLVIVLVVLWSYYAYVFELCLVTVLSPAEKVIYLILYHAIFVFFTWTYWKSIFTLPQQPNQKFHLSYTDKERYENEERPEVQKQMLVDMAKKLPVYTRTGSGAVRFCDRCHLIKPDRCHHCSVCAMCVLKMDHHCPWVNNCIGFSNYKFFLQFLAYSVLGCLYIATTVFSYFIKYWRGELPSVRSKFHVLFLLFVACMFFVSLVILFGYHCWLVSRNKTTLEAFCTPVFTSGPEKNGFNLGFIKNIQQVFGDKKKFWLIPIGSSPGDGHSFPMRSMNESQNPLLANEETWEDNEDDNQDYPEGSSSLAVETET
An excerpt:
probe loading in HEK293T, FLAG IP, TAMRA click, in-gel fluorescence on ZDHHC15 | ZDHHC15(Y184G)/20-cPr

The target in test [2] is T2, ZDHHC3 (Homo sapiens, UniProt Q9NYG2, I182G).
T2 construct: N-terminal 3xFLAG tag; expressed in HEK293T, anti-FLAG immunoprecipitated
T2 sequence (Q9NYG2 1-299 I182G): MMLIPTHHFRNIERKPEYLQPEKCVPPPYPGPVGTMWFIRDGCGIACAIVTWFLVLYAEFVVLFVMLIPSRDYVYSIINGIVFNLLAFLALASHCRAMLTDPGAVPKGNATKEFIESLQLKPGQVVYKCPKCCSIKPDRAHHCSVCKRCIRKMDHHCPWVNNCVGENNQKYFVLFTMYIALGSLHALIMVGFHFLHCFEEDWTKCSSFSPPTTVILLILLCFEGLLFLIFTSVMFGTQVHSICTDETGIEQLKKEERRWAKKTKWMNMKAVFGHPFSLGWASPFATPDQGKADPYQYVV

Test [3] deals with T3, ZDHHC11 (Homo sapiens, UniProt Q9H8X9, M181A).
T3 construct: N-terminal 3xFLAG tag; expressed in HEK293T, anti-FLAG immunoprecipitated
T3 sequence (Q9H8X9 1-412 M181A): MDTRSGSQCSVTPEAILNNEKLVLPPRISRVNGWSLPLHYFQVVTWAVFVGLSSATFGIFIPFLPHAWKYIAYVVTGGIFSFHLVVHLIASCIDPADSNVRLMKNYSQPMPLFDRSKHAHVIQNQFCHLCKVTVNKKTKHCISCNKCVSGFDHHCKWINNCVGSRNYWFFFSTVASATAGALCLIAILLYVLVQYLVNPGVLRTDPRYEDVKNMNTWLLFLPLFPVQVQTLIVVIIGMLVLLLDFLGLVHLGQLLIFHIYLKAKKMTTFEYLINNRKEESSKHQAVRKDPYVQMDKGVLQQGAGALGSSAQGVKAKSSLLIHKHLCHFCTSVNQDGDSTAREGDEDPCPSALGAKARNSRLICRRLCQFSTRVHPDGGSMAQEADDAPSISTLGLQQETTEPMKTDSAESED
An excerpt:
probe loading in HEK293T, FLAG IP, TAMRA click, in-gel fluorescence on ZDHHC11 | ZDHHC11(M181A)/16-cPr

For test [4], the target named is T4, ZDHHC7 (Homo sapiens, UniProt Q9NXF8, L57G).
T4 construct: N-terminal 3xFLAG tag; expressed in HEK293T, anti-FLAG immunoprecipitated
T4 sequence (Q9NXF8 1-308 L57G): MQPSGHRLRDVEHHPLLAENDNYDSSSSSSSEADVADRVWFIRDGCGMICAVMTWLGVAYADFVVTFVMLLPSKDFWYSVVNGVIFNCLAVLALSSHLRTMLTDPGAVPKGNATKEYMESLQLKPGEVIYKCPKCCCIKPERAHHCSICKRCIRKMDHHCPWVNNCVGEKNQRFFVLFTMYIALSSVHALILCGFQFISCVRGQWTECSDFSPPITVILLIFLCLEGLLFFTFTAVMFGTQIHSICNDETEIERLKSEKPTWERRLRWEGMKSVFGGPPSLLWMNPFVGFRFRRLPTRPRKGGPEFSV
The source says:
probe loading in HEK293T, FLAG IP, TAMRA click, in-gel fluorescence on ZDHHC7 | ZDHHC7(L57G)/20-Bz

Consider `C#CCN(CCCCCCCCCCCCCCCC(=O)O)C(=O)C1CC1` [6h, 16-(N-(Prop-2-yn-1-yl)cyclopropanecarboxamido)hexadecanoic acid], for which the “probe loading in HEK293T, FLAG IP, TAMRA click, in-gel fluorescence” value (shortened to “probe loading in HEK293T, FLAG IP”) in test [1] was “ZDHHC15(Y184G)/20-cPr”; in test [2], “four additional optimized mutant/probe pairs: ZDHHC3(I182G)/20-cPr”. Take `C#CCN(CCCCCCCCCCCC(=O)O)C(=O)C1CC1` [6b, 12-(N-(Prop-2-yn-1-yl)cyclopropanecarboxamido)dodecanoic acid]: the “probe loading in HEK293T, FLAG IP” value in test [3] is on record as “ZDHHC11(M181A)/16-cPr”. Take `C#CCN(CCCCCCCCCCCCCCCC(=O)O)C(=O)c1ccccc1` [6i, 16-(N-(Prop-2-yn-1-yl)benzamido)hexadecanoic acid]: the “probe loading in HEK293T, FLAG IP” value in test [4] is reported as “ZDHHC7(L57G)/20-Bz”.
